Experiments:
[1] = tested on: mechanical hyperalgesia in meniscal tear osteoarthritis; experiment: Surgically induced meniscal tear osteoarthritis in the rat (MMT); format: in vivo; settings: for Pain threshold / Pain threshold: MPE (%): 10 mg/kg daily orally
Text: Male Sprague Dawley rats (Charles River) approximately 350 g body weight were used. Rats were anesthetized using 2.5% isoflurane in oxygen with a flow rate of 1 I per minute. The right hind leg was shaved and surgically prepared. The medial collateral ligament was exposed and transected. The meniscus was grasped with a hemostat and reflected proximally toward the femur. The meniscus was cut through its full thickness at the narrowest point. The connective tissue layer and the skin were closed with coated Vicryl 8-0 and 4-0 silk sutures, respectively. Sham operated animals underwent an identical procedure with the exception that the medial collateral ligament was exposed but not transected. After a recovery period of 2 weeks, mechanical hyperalgesia was evaluated for the following 4 weeks, once a week, before and 90 minutes after drugs administration. Pharmacological oral treatment was performed for 28 days, starting from 14 days after surgery. After 6 weeks from surgery, rats (ten animals per group) were sacrificed and the ipsilateral knee was removed for histopathological analysis.
The maximum possible effect (MPE %) was calculated by the following formula: 100*(Compound−Vehicle)/(Sham−Vehicle)

CFA induced hyperalgesia = experiment: CFA-induced inflammatory pain in rats (Randall-Selitto paw withdrawal threshold); format: in vivo; settings: rat, 24 h after administration
Experimental: Male Wistar rats were injected into the right hind footpad with 300 μg of Mycobacterium tuberculosis in 100 μL of liquid paraffin (Complete Freund's Adjuvant; CFA). Seventy-two hours later, compounds 2 and 26 were administered subcutaneously and 24 h after the administration, the response to noxious mechanical stimulation was assessed by measuring paw withdrawal threshold (PWT) with an analgesimeter of the Randall-Selitto type. Animals were gently restrained, and steadily increasing pressure was applied to the dorsal surface of both the ipsi-lateral (CFA-treated) and the contra-lateral paw via a dome-shaped plastic tip.
100% protection means that the animal treated with the compound and CFA can tolerate the same stimulus (weight) as the control animal which has not received CFA treatment.

[2] = tested on: NF-kB activation in JB6 CI 41-5a (P+) cells; experiment: Gene reporter (GR) assay, NF-kB luciferase after TNFα stimulation; format: cell-based, murine; settings: 1 h pre-treatment, 2 ng/ml TNFα for 4 h; read-out: IC50(nM) GR Inhibition
Text: To determine if the compounds of the invention were active also in a cellular model, a gene reporter assay was established in a cell line (JB6 CI 41-5a (P+)) know to activate Fyn kinase via an inflammatory stimuli (TNFα). GR assay measures the activation of the nuclear transcription factor NF-kB, situated down-stream the Fyn activation pathway. Products active in this analysis has to penetrate in the cell and inhibit the activation pathway of NF-kB.
The murine epithelial cell line JB6 CI 41-5a (P+) (ATCC® Cat. # CRL-2010) was stably transfected with the pGL4.32[luc2P/NFkB-RE/Hygro] vector (Promega). Clonal selection was achieved by limiting dilution in MEM (+Earle's BSS+1.5 g/l sodium bicarbonate+0.1 mM NEAA)+GlutaMAX™-I, +1 mM sodium pyruvate, +5% FBS+80 μg/ml Hygromycin B. The clones were tested for their response to TNFα stimulus. The obtained transfected cells (JB6(P+) NFkB-RE-luc2P T3-C10) contained a firefly luciferase gene (luc2P) under the control of minimal TATA promoter with multiple Nuclear Factor-kB response elements (NFkB-REs). These NFkB-REs are DNA binding sequences for the NF-kB transcription factor.
JB6(P+) NFkB-RE-luc2P T3-C10 cells were used for the analysis of NF-kB activity modulation, after TNFα stimulation, by Fyn-inhibitors (Hwang et al.; Biochem. Pharmacol. 2009, 77 (7):1213-22).
6000 cells/well were plated in a 96× well plate. After 24 h new medium without antibiotics was given. After further 24 h the cells were pre-treated with the different compounds for 1 h and then stimulated with 2 ng/ml TNFα for 4 h. In each experiments two positive standards were always used, and each tested condition was analyzed in quadruplicate.
The luciferase analysis was performed with ONE-Glo™+ToxLuciferase Reporter and Cell Viability Assay kit (Promega). This assay combined luciferase assay chemistry with a cell viability marker to better understand reporter gene expression in the context of cell health. The assay uses a two-step process. The first part of the assay was a non-lytic fluorescence assay (CellTiter-Fluor™ Cell Viability Assay) that measured the relative number of live cells in a culture population, as it measures a conserved and constitutive protease activity within live cells. The live-cell protease activity was restricted to intact viable cells and was measured using a fluorogenic, cell-permeant peptide substrate (glycyl-phenylalanyl-aminofluorocoumarin; GF-AFC). The generated fluorescent signal, proportional to the number of living cells, was measured with EnVision microplate reader (PerkinElmer) using an excitation wavelength of 400 nm and emission wavelength of 500 nm.
The second part of the assay uses the ONE-Glo™ Luciferase Assay System to quantify firefly luciferase reporter gene expression. The ONE-Glo™ Assay contained a fluoro-luciferin substrate, more tolerant to sample components than standard luciferase assay reagents. Luminescence was measured with EnVision microplate reader (PerkinElmer).
Compounds of Formula (I) were tested for their capacity to penetrate into the cell and inhibit the activation pathway of NF-kB.

Pharmacokinetics in rats = format: in vivo, rat; settings: 1 mg/kg orally
JB6 CI 41-5a (P+) = experiment: Toxicity in JB6 cells (MTT method); format: cell-based, murine; settings: 3 μmolar, 24 hours of incubation
Experimental: Cell toxicity analysis in JB6 CI 41-5a (P+) is important to determine if the results obtained in GR assay are due to the pharmacological effect or to a toxicity effect of the products.
The murine epithelial cell line JB6 CI 41-5a (P+) (ATCC® Cat. # CRL-2010) was used to analyze the products cell toxicity by MTT method. 10^4 cells/well were plated in a 96× well plate MEM 5%. 48 h after plating the cells were pre-treated with the different compounds and positive standards for 1 h and then stimulated with TNFα (to simulate the same experimental conditions used in the gene reporter assay) for 4 and 24 h. At the end of the incubation time, the medium was removed and was substituted with a mixture 10:1 of MEM 5% MTT (2 mg/ml) for 1 h at 37° C. in the cell incubator. MTT is a tetrazolium salt especially useful for assaying the quantification of living metabolically active cells; it works by being metabolized by mitochondrial dehydrogenases to form a formazan dye (salt). After this incubation the supernatant was removed and the precipitated salt was dissolved with 100 μl of DMSO. The plate was then read at 540 nm. 100 μl of DMSO alone (without cells) were used as a blank, that was subtracted from the measure of each sample.

CC(C)(C)n1nc(-c2ccc(Cl)cc2)c2c(N)ncnc21 [PP2, reference compound]
Pain threshold ([1]; day 14 post surgery): 285 g | Pain threshold ([1]; day 21 post surgery): 278 g | Pain threshold: MPE (%) ([1]; day 21 post surgery): 1.8% | Pain threshold ([1]; day 28 post surgery): 267 g | Pain threshold: MPE (%) ([1]; day 28 post surgery): 0% | Pain threshold ([1]; day 35 post surgery): 262 g | Pain threshold: MPE (%) ([1]; day 35 post surgery): 0% | Pain threshold ([1]; day 42 post surgery): 253 g | Pain threshold: MPE (%) ([1]; day 42 post surgery): 0% | tolerability ([1]; rat, oral, doses higher than 10 mg/kg): not tolerated | % protective effect vs. CFA induced hyperalgesia (CFA induced hyperalgesia; 3): 45% | % protective effect vs. CFA induced hyperalgesia (CFA induced hyperalgesia; 10): 47% | IC50 [2]: 505 nM | AUC (0-24 h) (Pharmacokinetics in rats): 160 ng·h/mL | percent residual cell vitality (JB6 CI 41-5a (P+)): 18%

From patent US10125121B2, “FYN kinase inhibitors” (ROTTAPHARM BIOTECH S.R.L., priority 2015, dated 2018)
